US20070224273A1, “Multifunctional Supramolecular Hydrogels as Biomaterials” (priority 2004, published 2007)
Peptide text beside a SMILES is read from it. * marks the point of attachment. Butanoyl(4-pyren-1-yl) = O=C(CCCc1ccc2ccc3cccc4ccc1c2c34)*; Acetyl(1-naphthyl) = O=C(Cc1cccc2ccccc12)*

Columns and labels:
[1] = Artificial enzyme (hemin) activity assay, oxidation of pyrogallol by H2O2; format: biochemical
Method: Activity assay: Using the oxidation of pyrogallol (10.0 mM) by H2O2 (40.0 mM) as a model reaction and fixing the total concentration of Hemin to 5 μM in the mixture, we examined the activity of Hemin by monitoring the absorbance (420 nm) of purpurogallin, the product of Hemin-catalyzed oxidation of pyrogallol. The catalytic reaction course of the artificial enzyme was measured by monitoring the increase in absorbance along with time change. The absorbance increase in the first minute was defined to be the initial rate. The Lineweaver-Burk plots constructed by the reaction initial rates at different pyrogallol concentrations were used to estimate their kinetic constant values. The other substrates, including o-phenyldiamine (product absorption at 450 nm) and o-aminophenol (product absorption at 430 nm), were employed under the same procedure of pyrogallol.
Using the oxidation of pyrogallol as a model reaction and fixing the total concentration of Hemin to be 5 μM in the mixture, we obtained the catalytic rate of Hemin by monitoring the changes of the absorbance of purpurogallin, the product of Hemin-catalyzed oxidation of pyrogallol. […] The Lineweaver-Burk plots constructed by the reaction initial rates at different pyrogallol concentrations gave the activity of the artificial enzyme. The kinetics of the catalysis of artificial enzyme follows Michaelis-Menten equation, which indicated successful design and generation of an artificial peroxidase by encapsulating hemin into hydrogel. […] Two factors likely contribute to the high activity of Hemin(Phe) in pH 7,4 buffer: (i) localization of hemin on the nanofibers preserves the catalytic species—monomeric hemin; (ii) the mesoporous structure in hydrogel facilitates the substrate across the hydrogel network to access the hemin in the hydrogel.

[2] = Hydrogelation in water (ability, concentration, pH); format: physicochemical
Method: Typically, after 2 mg of 1 was suspended in 1.0 mL of water, the increase of temperature to 80° C. gave a clear solution. Cooling the solution to room temperature led to a slightly opaque hydrogel (Gel I, FIG. 20A). Similar procedure afforded the hydrogel of 2 (Gel II, FIG. 20B).

[3] = Solubility in water of pentapeptide derivatives; format: physicochemical
Source text: Most of the compounds can gel water under appropriate pH. When the pH becomes higher than the listed value, the gel tends to become a clear solution, while a lower pH always leads to precipitation rather than homogeneous gel formation. GAGAS (SEQ ID No. 1), the epitope with the least bulk side chains, appears to be quite hydrophilic in water.
However, it is still not a good candidate as a hydrophilic tail in a hydrogelator. […] Hydrogel by Fmoc-GVGVP can be obtained by carefully adjusting the pH to 4.8, with the hydrogel not being thermal-reversible. […] Upon heating, it also melts. All three compounds, with VPGVG as the hydrophilic part, fail to gel water at the tested condition. They all show sharp solubility changes with pH and low melting points.

acid phosphatase = assay: Visual hydrogelation assay for enzyme inhibitors (conversion of 9 to 10); format: biochemical; settings: pH=6.0, 37° C., solution-to-gel transition after 30 minutes
Source text: FIG. 6 illustrates the design of the visual assay. The precursor, which acts as the substrate of an enzyme, transforms into a hydrogelator when the enzyme catalyzes its conversion. Then, the self-assembly of the hydrogelators in water induces the formation of hydrogel. When inhibitors competitively bind with the active site of the enzyme and block the conversion of the precursor catalyzed by the enzyme, no hydrogel forms. Therefore, the macroscopic solution-to-gel transition (which can be observed visually) of the solution of the precursor reports the inactivation of the enzyme by the inhibitors.
This approach has a unique feature—it enlists water molecules as part of the reporting system. In addition, no spectrometer is required for observing the solution-to-gel phase transition. This simple and inexpensive method may be useful, not only for screening the inhibitors but also, for detecting the presence of enzymes when appropriate precursors are used. To verify the feasibility of the design shown in FIG. 6, a simple amino acid derivative (9), which can be converted into a hydrogelator (10) by dephosphorylation, was used to screen the inhibitors for an acid phosphatase.
Since the acid phosphatase catalyzes the conversion of 9 to 10 and leads to hydrogelation at a pH=6.0 and 37° C., the event of hydrogelation can indicate the activity of inhibitors for the acid phosphatase itself. Pamidronate disodium, Zn^2+, and sodium orthovanadate (Na3VO4) were chosen to estimate their minimum inhibition concentrations for the acid phosphatase. The three compounds were first mixed with the enzyme at a series of concentrations, respectively, followed by the addition of 9 to the solutions 10 minutes after mixing. After an additional 30 minutes of incubation, the solution-to-gel phase transition indicates the minimum inhibition concentration of the compounds. From the changes of rows 2, 3, and 4 in FIG. 7, the minimum inhibition concentrations of Pamidronate disodium, Zn^2+, and sodium orthovanadate (Na3VO4) for the acid phosphatase were determined to be 33 mM, 0.33 mM, and 3.3 mM, respectively.

[4] = Solution of precursor 3, sample G (only water, no enzyme); format: biochemical; settings: precursor 3 to form 1 after 6 hours
Method: (§1) To evaluate whether precursor 3 would respond to β-lactamases in bacteria, solution of precursor 3 was treated with sonicated lysates of E. coli.

[5] = biological target: T1, SHV-1 (broad-spectrum β-lactamase) (Escherichia coli, UniProt P0AD63); assay: Cell lysate added to solution of precursor 3, sample E; format: biochemical, E. coli; settings: lysate SHV-1
T1 construct: endogenous in cells; host or cells: E. coli (sonicated lysate)
Method: as §1

[6] = biological target: T2, TEM-1 (broad-spectrum β-lactamase) (Escherichia coli, UniProt P62593); format: biochemical, E. coli; settings: lysate TEM-1
T2 construct: endogenous in cells; host or cells: E. coli (sonicated lysate)
Method: as §1

[7] = test system: JP995 (β-lactamase negative E. coli control); assay: Cell lysate added to solution of precursor 3, sample D; format: biochemical; settings: precursor 3 to form 1 after 6 hours
Method: as §1

[8] = biological target: T3, CTX-M14 (extended-spectrum β-lactamase) (Escherichia coli, UniProt Q9L5C7); assay: Cell lysate added to solution of precursor 3, sample C; format: biochemical, E. coli
T3 construct: endogenous in cells; host or cells: E. coli (sonicated lysate)
Method: as §1

[9] = test system: C600 (β-lactamase negative E. coli control); assay: Cell lysate added to solution of precursor 3, sample A; format: biochemical; settings: precursor 3 to form 1 after 6 hours
Method: as §1

[10] = test system: CTX-M13 (extended-spectrum β-lactamase); assay: Cell lysate added to solution of precursor 3, sample B; format: biochemical, E. coli
Method: as §1

[11] = precursor 3 to form 1 after 6 hours

T1 sequence (P0AD63 22-286): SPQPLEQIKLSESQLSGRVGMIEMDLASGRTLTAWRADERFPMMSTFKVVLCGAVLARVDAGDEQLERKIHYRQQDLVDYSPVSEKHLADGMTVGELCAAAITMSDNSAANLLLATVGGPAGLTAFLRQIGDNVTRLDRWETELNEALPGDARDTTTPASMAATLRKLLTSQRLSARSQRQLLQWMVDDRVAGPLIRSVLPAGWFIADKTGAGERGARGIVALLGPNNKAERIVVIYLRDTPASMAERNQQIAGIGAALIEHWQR
T2 sequence (P62593 24-286 limits assumed): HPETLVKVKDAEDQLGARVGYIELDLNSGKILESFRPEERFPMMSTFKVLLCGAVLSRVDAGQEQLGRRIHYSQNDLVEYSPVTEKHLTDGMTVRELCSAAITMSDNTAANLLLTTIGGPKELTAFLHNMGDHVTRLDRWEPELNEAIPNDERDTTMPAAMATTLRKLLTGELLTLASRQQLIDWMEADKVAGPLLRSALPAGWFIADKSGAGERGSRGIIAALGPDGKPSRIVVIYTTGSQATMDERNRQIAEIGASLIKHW
T3 sequence (Q9L5C7 entry or part of it): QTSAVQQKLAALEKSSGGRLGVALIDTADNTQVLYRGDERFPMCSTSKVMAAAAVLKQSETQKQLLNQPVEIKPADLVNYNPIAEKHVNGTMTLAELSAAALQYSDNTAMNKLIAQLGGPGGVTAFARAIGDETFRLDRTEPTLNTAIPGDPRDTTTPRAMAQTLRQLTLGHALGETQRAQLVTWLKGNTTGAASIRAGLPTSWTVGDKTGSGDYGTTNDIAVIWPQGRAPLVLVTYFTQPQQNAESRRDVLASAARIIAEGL

Structure (SMILES): C=CC1=C(C)c2cc3[n-]c(cc4nc(cc5[n-]c(cc1n2)c(C)c5CCC(=O)O)C(CCC(=O)O)=C4C)c(C)c3C=C.[Cl-].[Fe+3] [Hemin(Free), hemin chloride]
- retention of catalytic ability during reaction ([1]; 15 minutes course, water buffer and toluene): lost most catalytic ability after 5 min
- kcat in buffer ([1]; buffer (0.01 M, pH 7.4, phosphate)): 0.04 s⁻¹
- kcat in toluene ([1]; toluene): 0.045 s⁻¹

Structure (SMILES): O=C(Cc1ccc2ccccc2c1)NC1C(O)OC(CO)C(O)C1O [Nap-D-Glucosamine]
- ability to gel water / form hydrogel [2]: fail to form supramolecular hydrogels

Structure (SMILES): O=C(Cc1ccc2ccccc2c1)NC(Cc1ccccc1)C(=O)NC(Cc1ccccc1)C(=O)NC1C(O)OC(CO)C(O)C1O [Nap-L-Phe-L-Phe-D-Glucosamine]
- ability to gel water / form hydrogel [2]: fail to form supramolecular hydrogels

Structure (SMILES): C[C@H](NC(=O)CNC(=O)Cc1cccc2ccccc12)C(=O)NCC(=O)N[C@@H](C)C(=O)N[C@@H](CO)C(=O)O [Naph-GAGAS] ({Acetyl(1-naphthyl)}-GAGAS-OH)
- solubility in water [3]: soluble in water even under low pH and high concentration

Structure (SMILES): CC(C)[C@H](NC(=O)CNC(=O)Cc1cccc2ccccc12)C(=O)NCC(=O)N[C@H](C(=O)N1CCC[C@H]1C(=O)O)C(C)C [Naph-GVGVP] ({Acetyl(1-naphthyl)}-GVGVP-OH)
- solubility in water [3]: either dissolves in water at a pH higher than 4 or becomes a suspension at a lower pH

Structure (SMILES): NCCC(O)(P(=O)(O)O)P(=O)(O)O [Pamidronate disodium]
- minimum inhibition concentration (acid phosphatase): 33 mM

Structure (SMILES): NCC(=O)N[C@@H]1C(=O)N2C(C(=O)O)=C(CSCCNC(=O)[C@H](Cc3ccccc3)NC(=O)[C@H](Cc3ccccc3)NC(=O)Cc3ccc4ccccc4c3)CS[C@H]12 [Precursor 3]
- Conversion (%) [4]: <0.5%
- Conversion (%) ([4]; listed as precursor 3): < 0.5%
- Gelation ([5]; precursor 3 0.35 wt %): + (Gels form in less than 2 hours)
- Conversion (%) [5, 11]: 65.2%
- start of hydrogelation (dynamic time sweep) (β-lactamase; after addition of the β-lactamases): about 22 minutes
- precursor 3 transformed into 1 (HPLC) (β-lactamase; one hour after addition of β-lactamase, room temperature): 49.0%
- conversion of 3 to 1 (HPLC) (β-lactamase; β-lactamase and its inhibitor (clavulanic acid), after 12 hours): 3.4%
- Gelation ([6]; precursor 3 0.35 wt %): + (Gels form in less than 2 hours)
- Conversion (%) [6, 11]: 84.3%
- Conversion (%) [7]: 5.8%
- Gelation ([8]; precursor 3 0.35 wt %): + (Gels form in less than 2 hours)
- Conversion (%) [8, 11]: 99.5%
- Conversion (%) [9]: <0.5%
- Conversion (%) ([9]; listed as precursor 3): < 0.5%
- Gelation ([10]; precursor 3 0.35 wt %): + (Gels form in less than 2 hours)
- Conversion (%) [10, 11]: 99.7%

Structure (SMILES): CC(C)[C@H](NC(=O)CCCc1ccc2ccc3cccc4ccc1c2c34)C(=O)N[C@@H](Cc1ccc(O)cc1)C(=O)NCC(=O)NCC(=O)NCC(=O)O [Pyrene-VYGGG] ({Butanoyl(4-pyren-1-yl)}-VYGGG-OH)
- solubility in water [3]: insoluble in water even under basic conditions

Structure (SMILES): [Zn+2] [Zn^2+]
- minimum inhibition concentration (acid phosphatase): 0.33 mM

Structure (SMILES): O=C(O)[C@H]1/C(=C/CO)O[C@@H]2CC(=O)N21 [clavulanic acid, reference compound]
- hydrogel formation with β-lactamase and inhibitor (β-lactamase; precursor 3 added to β-lactamase and inhibitor): failed to yield a hydrogel

Structure (SMILES): [Na+].[Na+].[Na+].[O]=[V]([O-])([O-])[O-] [sodium orthovanadate]
- minimum inhibition concentration (acid phosphatase): 3.3 mM
